Source: patent US20220226586A1, “An Inhaler For Electronically Supervised Parenteral Administration of a Pharmaceutical Composition” (Celon Pharma S.A., priority 2019, published 2022)
Structures can show the parent of a compound that is named as a salt.

Tests used:
[1] = cited from earlier work
[2] = cited from earlier work; remark: listed apart in the source
[3] = test system: treatment-resistant depression; details: cited from earlier work
[4] = nebulized saline solution, inhalation; cited from earlier work
[5] = test system: NMDA receptor; details: cited from earlier work
[6] = Pharmacokinetics of inhaled esketamine dry powder in healthy volunteers; type: in vivo; details: overall conclusion
Procedure: Esketamine hydrochloride dry powder formulation of Example 2 was administered to healthy volunteers pulmonary, i.e. directly to the lungs using dry powder inhaler (DPI) (by self-administration).
One puff of dry powder formulation contained 4.6 mg of esketamine hydrochloride, corresponding to 4 mg of esketamine free base and excipients 18.22 mg of lactose monohydrate and 0.18 mg of magnesium stearate.
A single dose was an inhalation events consisting of 1 to 6 puffs, i.e. 4 to 24 mg of esketamine free base nominal dose.
In part A of the study, designed as a one-centre single ascending dose, the medicine was delivered in a single dose once daily (up to 6 consecutive puffs) to 18 healthy volunteer subjects. Subjects were divided into 6 cohorts, cohorts receiving 1, 2, 3, 4, 5 or 6 puffs in a single doses (inhalation events), respectively.
Collection of blood samples for determination of esketamine and esnorketamine concentration and calculation of pharmacokinetic parameters was performed for up 24 hours following the start of the test.
The aim of the study was to determine the amount of puffs needed to obtain plasma concentration similar to that sufficient to achieve antidepressant effect as for 0.20 mg/kg 40 minutes intravenous infusion. It can be predicted on the basis of literature data that this corresponds to concentration at 40 min of infusion between about 60 to 100 ng/ml. […]

[7] = after intravenous infusion of racemic ketamine
[8] = after oral administration of ketamine

## CNC1(c2ccccc2Cl)CCCCC1=O (racemic) [ketamine]
[1]; after intravenous infusion 0.5 mg/kg for 40 minutes
  half-period of concentration fall: below 2 hours
[1]; intravenous infusion 0.5 mg/kg for 40 minutes, maintained for about 40 minutes
  systemic concentration of parent drug: about 200 ng/ml
[2]; orally administered
  bioavailability: 16-20%
[3]; human, in vivo
  fraction of patients with treatment-resistant depression responsive to treatment: about 2/3

## CN[C@]1(c2ccccc2Cl)CCCCC1=O [esketamine hydrochloride]
[4]
  inhaled bioavailability: reduced

## NC1(c2ccccc2Cl)CCCCC1=O (stereo not drawn) [norketamine]
[1]; [7]
  maximum concentration as % of ketamine concentration: 10-20%
  percentage of AUC norketamine to ketamine: 20-40%
[2]; [8]
  AUC relative to ketamine: exceeding 1000%
  level as % of ketamine level: 500-1000%
[5]
  activity on NMDA receptor relative to ketamine: many times less active than ketamine

## CN[C@]1(c2ccccc2Cl)CCCCC1=O [esketamine]
[6]
  plasma concentration profile after pulmonary administration: quite smooth, consistent with a target profile and safe for chronic administration
[3]; 40-minute i.v. infusion of 0.20 mg/kg or 0.40 mg/kg (Singh et al.)
  antidepressant effect in TRD patients: rapid onset of robust antidepressant effects
